Laboratory results from article PMC11199504, “New hemisynthetic derivatives of sphaeropsidin phytotoxins triggering severe endoplasmic reticulum swelling in cancer cells” (Scientific Reports, 2024).

Experiments:
caspase-3, -8 and 9 = experiment: Caspase-3, -8 and -9 multiplex assay in U373; assay type: cell-based, human; settings: U373 cells, until 24 h of treatment
Procedure: (§1) Cell death induced by compounds 1 and 13 was evaluated by means of the double annexin-V/propidium iodide staining by flow cytometry with the FITC Annexin V apoptosis detection kit from BD Pharmingen (USA) according to the manufacturer’s instructions. Briefly, cells were cultured and treated in 25 cm^2 flasks. At the end of the treatment, all cells (adherent and floating cells) were collected, washed and resuspended at 10^6 cells/mL. 100 µL of the cell suspension were stained with 5 µL of FITC-annexin-V and 5 µL of propidium iodide for 15 min at rt in the dark. 400 µL of buffer were then added before data acquisition of 10,000 events per sample (Gallios, Beckman Coulter, Belgium). Caspase activation is usually evaluated to confirm or not the apoptotic feature of the cell death induced. For this purpose, we used the caspase-3, -8 and 9 multiplex assay (Ab219915, Abcam, UK) following manufacters’ instructions. In this assay, cells were exposed to short peptidic sequences linked to different fluorochromes and that could be specifically cleaved by each of these caspases. This assay thereby allowed simultaneous evaluation of the three caspase activities thanks to the quantification of the three fluorophores released in a SynergyMX plate fluorimeter (Biotek, USA).

caspase-8 = experiment: Caspase multiplex assay, caspase-8 in SKMEL-28; assay type: cell-based, human; settings: SKMEL-28 cells, 15 h of treatment
Procedure: as §1

SKMEL-28 and U373 cells = experiment: Reversibility assay; assay type: cell-based, human; settings: after 6 h of treatment, both cell lines
Procedure: The reversibility of the effects induced by compounds 13 was evaluated through qualitative microscopic observation of the cell cultures (morphology and confluence of the cell culture) over time after having been exposed or not to the compound for 1, 3 or 6 h. Negative control corresponds to untreated cells while positive control corresponds to cells treated with 13 continuously over the whole experiment. Briefly, 6 × 10^4 cells per well were seeded in 6 well plates and incubated for 24 h before their use. Culture medium was then replaced by fresh medium with or without compound 13. After 1, 3 or 6 h of treatment, cells were washed and the culture medium was renewed. Pictures were taken at different time points starting at t = 0 when the treatment was applied to the cells, 6 h, 24 h and 72 h thereafter.

[1] = molecular target: caspase-like activity of the proteasome (Homo sapiens, UniProt P28072); experiment: Cellular proteasomal caspase-like activity; assay type: cell-based
Procedure: (§2) The chemotrypsin-like, trypsin-like and caspase-like activities of the proteasome were evaluated in cells with the G8660, G8861 and G8761 kits respectively according to the manufacturer’s instructions (Promega, USA). Briefly, the assays are based on the use of short amino-acid sequences coupled with luciferin and that can be specifically cleaved by each catalytic unit of the proteasomal complex. For this purpose, cells were seeded in 96 well plates 24 h before their treatment with 1 (5 µM), 13 (1 µM) for 6 h or with the positive control MG132 (1 µM) for 24 h. At the end of the treatments, cells were washed three times with PBS and permeabilized with digitonin (0.5 mg/mL; 50 µL per well) under shaking for 10 min. Then, 50 µL of a mixture of the substrate of interest and luciferase were added for 15 min under slow shaking. Luminescence levels quantified with the Active-Glo LR-100 luminometer (DSLabs, Suisse) were normalized according the number of viable cells evaluated in parallel in the same conditions by means of MTT assay.

U373 cells = experiment: Annexin-V/propidium iodide staining by flow cytometry; assay type: cell-based, human; settings: 24 h of treatment
Procedure: as §1

[2] = molecular target: chymotrypsin-like activity of the proteasome (Homo sapiens, UniProt P28074); experiment: Cellular proteasomal chymotrypsin-like activity; assay type: cell-based; settings: 13 at 1 µM, 6 h of treatment, both SKMEL-28 and U373
Procedure: as §2

caspase-3 = experiment: Caspase multiplex assay, caspase-3 in SKMEL-28; assay type: cell-based, human; settings: SKMEL-28 cells, 15 h of treatment
Procedure: as §1

[3] = test system: 60 cancer cell line panel; experiment: NCI 60 cancer cell line panel testing; assay type: cell-based
Source text: Cell lines are grouped by cancer type [origin]. Determination of the concentration that reduced by 50 % the
Log10 differences are represented by the bars. If a cell line is more sensitive , the bar is on the right , if it is less
sensitive, the bar is on the left. Similar data are represen ted for the 50 % lethal concentration [LC 50] of each
(1 picture or pasted object on this page, not shown here)

NKCC = settings: cited from earlier work
[4] = design: method as in PMID 33016969; settings: cited from earlier work

Sequence of caspase-like activity of the proteasome (P28072 whole entry): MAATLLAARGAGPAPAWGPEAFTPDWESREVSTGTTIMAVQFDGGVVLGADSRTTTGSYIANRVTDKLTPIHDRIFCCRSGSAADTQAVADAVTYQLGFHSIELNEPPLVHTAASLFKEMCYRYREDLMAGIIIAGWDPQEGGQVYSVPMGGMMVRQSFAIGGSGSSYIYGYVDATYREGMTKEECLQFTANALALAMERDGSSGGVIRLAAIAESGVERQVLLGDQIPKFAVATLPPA
Sequence of chymotrypsin-like activity of the proteasome (P28074 60-263): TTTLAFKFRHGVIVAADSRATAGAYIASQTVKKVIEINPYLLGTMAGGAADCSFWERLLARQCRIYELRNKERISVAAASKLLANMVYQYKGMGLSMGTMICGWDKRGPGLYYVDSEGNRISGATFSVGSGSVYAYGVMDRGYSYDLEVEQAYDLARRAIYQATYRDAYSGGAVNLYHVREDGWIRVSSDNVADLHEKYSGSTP

SMILES | caspase activation (caspase-3, -8 and 9) | caspase-8 activity (caspase-8) | reversibility of effects (SKMEL-28 and U373 cells) | inhibition at 1 µM ([1]; 13 at 1 µM, 6 h of treatment, both SKMEL-28 and U373) | cells positive to annexin-V (U373 cells) | inhibition at 1 µM [2] | caspase-3 activity (caspase-3) | CC50 ([3]; NCI 60 cancer cell line panel, read-out: global mean LC50) | GI50 ([3]; NCI, 48 h of culture, read-out: mean GI50 against the 60 cancer cell line panel) | effect on caspase-like proteasomal activity ([1]; 1 at 5 µM, 6 h) | concentration inhibiting NKCC activity (NKCC) | stability in physiological medium [4]
CC1(C=CCCCc2ccc3ccc4cccc5ccc2c3c45)C=C2C(=O)C3(O)OC(=O)C4(CCCC(C)(C)C34)C2(O)CC1 (stereo not drawn) [Compound 13] | no caspase activation could be detected | markedly increased | irreversible | > 60% | more than 60% | > 60% | markedly increased | 1500 nM | 190 nM |  |  | 
C=C[C@]1(C)C=C2C(=O)[C@@]3(O)OC(=O)[C@@]4(CCCC(C)(C)[C@H]34)[C@@]2(O)CC1 [Compound 1, sphaeropsidin A, reference compound] |  |  |  |  |  |  |  |  |  | stimulate caspase-like activity | low micromolar | instability
